Strand notation (5' to 3'): a small letter for the sugar, then the base; units joined by * are phosphorothioate-linked, units joined directly phosphodiester-linked; [ ] holds rarer units or linkages, { } end groups; capitals alone tell only the bases. e = 2'-O-(2-methoxyethyl) (MOE); [5mC] = 5-methylcytosine; d = 2'-deoxy (DNA)
Legend:
Factor 11 activity = test: Factor 11 protein activity, F11 assay based on clotting time (Example 45); assay type: in vivo, cynomolgus monkeys; conditions: escalating dose regimen
Experimental: Groups, each consisting of two male and three female monkeys, were injected subcutaneously with ISIS 416838, ISIS 416850, ISIS 416858, ISIS 416864, or ISIS 417002 in escalating doses. Antisense oligonucleotide was administered to the monkeys at 5 mg/kg three times per a week for week 1; 5 mg/kg twice per week for weeks 2 and 3; 10 mg/kg three times per week for week 4; 10 mg/kg twice per week for weeks 5 and 6; 25 mg/kg three times per week for week 7; and 25 mg/kg twice per week for weeks 8, 9, 10, 11, and 12. One control group, consisting of two male and three female monkeys, was injected subcutaneously with PBS according to the same dosing regimen. An additional experimental group, consisting of two male and three female monkeys, was injected subcutaneously with ISIS 416850 in a chronic, lower dose regimen. Antisense oligonucleotide was administered to the monkeys at 5 mg/kg three times per week for week 1; 5 mg/kg twice per week for week 2 and 3; 10 mg/kg three times per week for week 4; and 10 mg/kg twice per week for weeks 5 to 12. Body weights were measured weekly. Blood samples were collected 14 days and 5 days before the start of treatment and subsequently once per week for Factor 11 protein activity analysis in plasma, fibrinogen measurement, PT and aPTT measurements, bleeding times, and measurement of various hematologic factors. On day 85, the monkeys were euthanized by exsanguination while under deep anesthesia, and organs harvested for further analysis.
Blood samples were collected at various time points and Factor 11 proenzyme was measured using a F11 assay based on clotting time. Clotting times were determined in duplicate with a ST4 semi-automated coagulation instrument (Diagnostica Stago, NJ). Thirty μl of citrated sample plasma diluted 1/20 in HEPES-NaCl buffer with BSA was incubated with 30 μl aPTT reagent (Automated aPTT, Organon Technika, NC) and 30 μl of citrated plasma deficient of Factor 11 (George King Bio-Medical Inc.) at 37° C. for 5 min, followed by the addition of 30 μl of 25 mM CaCl2) to initiate clotting. Results were interpolated on a standard curve of serially diluted citrated control plasma.
Results are presented in Table 118 as percent inhibition of Factor 11 activity, relative to PBS control. The ISIS oligonucleotide, ISIS 416850, given with the chronic dose regimen is distinguished from the other oligonucleotides with an asterisk (*).

[1] = Tolerability in CD1 mice: kidney function (Example 43); assay type: in vivo; conditions: 50 mg/kg s.c. twice per week for 6 weeks, plasma

ISIS 417002: MOE gapmer, nucleobases 1275 to 1318 of SEQ ID NO: 1 (Table 8) (antisense GGTGCACAGTTTCTGGCAGG; MOE gapmer, wing and gap sizes not given here)
percent inhibition of Factor 11 activity, relative to PBS control (Factor 11 activity; day 8): 0%
percent inhibition of Factor 11 activity, relative to PBS control (Factor 11 activity; day 15): 4%
percent inhibition of Factor 11 activity, relative to PBS control (Factor 11 activity; day 22): 2%
percent inhibition of Factor 11 activity, relative to PBS control (Factor 11 activity; day 29): 8%
percent inhibition of Factor 11 activity, relative to PBS control (Factor 11 activity; day 36): 8%
percent inhibition of Factor 11 activity, relative to PBS control (Factor 11 activity; day 43): 9%
percent inhibition of Factor 11 activity, relative to PBS control (Factor 11 activity; day 50): 13%
percent inhibition of Factor 11 activity, relative to PBS control (Factor 11 activity; day 57): 24%
percent inhibition of Factor 11 activity, relative to PBS control (Factor 11 activity; day 64): 26%
percent inhibition of Factor 11 activity, relative to PBS control (Factor 11 activity; day 71): 30%
percent inhibition of Factor 11 activity, relative to PBS control (Factor 11 activity; day 78): 22%
percent inhibition of Factor 11 activity, relative to PBS control (Factor 11 activity; day 85): 23%
percent inhibition of Factor 11 activity, relative to PBS control (Factor 11 activity; day −5): 0%
percent inhibition of Factor 11 activity, relative to PBS control (Factor 11 activity; day −14): 0%

ISIS 449710: 3-8-3, 4-8-4, 2-10-2, 3-10-3 or 4-10-4 MOE microwalk gapmer (Table 46) (antisense e[5mC]*eA*e[5mC]*dA*dG*dT*dT*dT*d[5mC]*dT*dG*dG*d[5mC]*eA*eG*eG)
BUN [1]: 29 mg/dL
Creatinine [1]: 0.2 mg/dL

ISIS 449709: 3-8-3, 4-8-4, 2-10-2, 3-10-3 or 4-10-4 MOE microwalk gapmer (Table 46) (antisense eG*e[5mC]*eA*e[5mC]*dA*dG*dT*dT*dT*d[5mC]*dT*dG*dG*d[5mC]*eA*eG*eG*e[5mC])
BUN [1]: 34 mg/dL
Creatinine [1]: 0.3 mg/dL

ISIS 449711: 3-8-3, 4-8-4, 2-10-2, 3-10-3 or 4-10-4 MOE microwalk gapmer (Table 46) (antisense eA*e[5mC]*dA*dG*dT*dT*dT*d[5mC]*dT*dG*dG*d[5mC]*eA*eG)
BUN [1]: 26 mg/dL
Creatinine [1]: 0.2 mg/dL

Reference: patent publication US20230263822A1, “MODULATION OF FACTOR 11 EXPRESSION” (Ionis Pharmaceuticals, Inc., priority 2008, published 2023)
